Series [1] in a line: Drug concentration within the spleen, rhEpo model. The series is classed as in vivo, mice. Particulars: oral 30 mg/kg/day.
A further series deals with BALB/c mice. Description: rhEpo-induced splenomegaly and reticulocytosis, four days. Particulars: 30 mg/kg/day, sacrificed day 5. It counts as in vivo.
Series [2] concerns panel consisting of over 400 kinases. Description: In vitro kinase selectivity panel. The series is classed as biochemical. The note with it: 100 nM; including JAK2 and TYK2.
The next series concerns PDGFR family kinases. In words: Cell-based kinase selectivity assay.
In a further series the target is BCR-ABL (Homo sapiens, UniProt P00519+P11274). Description: Off-target activity compared with BBT594.
The nature of a further series: Metabolic stability. It counts as in vitro ADME.
Series [3] relates to CRLF2-rearranged PDXs. Description: Dynamic BH3 profiling of PDX cells ex vivo. It counts as cell-based, human. Particulars: 300 nM, 16 hr ex vivo.
Series [4] relates to CRLF2-rearranged B-ALL PDXs.
In series [5] the test system is Ba/F3-CRLF2 cells transduced with a library of JAK2 R683G. In words: Random mutagenesis screen for resistance. The series is classed as cell-based. Particulars: 3 μM inhibitor, absence of cytokines.
The test system of series [6] is pSTAT5 in the spleen and bone marrow. In words: rhEpo-induced pSTAT5 in murine model of polycythemia. It counts as in vivo, mice.
For another series, the system named is wild-type mice. Description: Tolerability in wild-type mice. It counts as in vivo. The note with it: 30 mg/kg/day for >6 weeks.
In series [7] the test system is MHH-CALL4 cells. Description: Immunoblotting of MHH-CALL4 lysates. It counts as cell-based, human. Particulars: 1 μM, 2 hr.
In series [8] the test system is Ba/F3-CRLF2 cells expressing JAK2 R683G or JAK2 R683G/L884P. In words: Proliferation, L884P versus no L884P, JAK2 R683G. It counts as cell-based. Particulars: 48 hr.
For series [9], the system named is MHH-CALL4 cells. Description: MHH-CALL4 cell viability. It counts as cell-based, human. The note with it: 72 hr.
Series [10] has as its system Ba/F3-EpoR cells expressing JAK2 V617F or JAK2 V617F/L884P. In words: Proliferation, L884P versus no L884P, JAK2 V617F. The series is classed as cell-based. The note with it: 48 hr.
Series [11] has as its system Ba/F3-CRLF2 cells expressing JAK2 R683G/L884P. Description: Immunoblotting of Ba/F3-CRLF2 JAK2 R683G/L884P lysates. It counts as cell-based. The note with it: concentrations up to 200 nM, 2 hr.
For series [12], the target named is T1, RET (Homo sapiens, UniProt P07949). Description: Cell-based kinase selectivity assay. Particulars: follow-up of kinome panel hit.
Series [13] addresses T1, RET. In words: Off-target activity compared with BBT594.
Another series can be described thus: Pharmacokinetics. It counts as in vivo, mice.
For series [14], the system named is CRLF2-rearranged PDXs. Description: PDX cells ex vivo, proliferation and apoptosis. It counts as cell-based, human. The note with it: 1 μM; B-ALL-X2, -X3, -X4, -X6.
The next series concerns VEGFR family kinases. Description: Cell-based kinase selectivity assay.
A further series has as its target KIT (Homo sapiens, UniProt P10721). In words: Cell-based kinase selectivity assay.
A further series addresses BRAF (Homo sapiens, UniProt P15056). In words: Cell-based kinase selectivity assay. Particulars: follow-up of kinome panel hit.
A further series is described as follows: Passive permeability. It counts as in vitro ADME.
For series [15], the system named is Ba/F3 cells expressing TEL-JAK2. In words: Ba/F3 TEL-JAK2 growth inhibition. It counts as cell-based.
A further series addresses FLT3 (Homo sapiens, UniProt P36888). In words: Off-target activity compared with BBT594.
The target in a further series is JAK2 (Homo sapiens, UniProt O60674). In words: JAK2-driven cellular assays. The series is classed as cell-based.
Series [16] concerns the target activated (phosphorylated) JAK2 kinase (Homo sapiens, UniProt O60674). Description: JAK2 biochemical kinase assay.
A further series addresses ABL (Homo sapiens, UniProt P00519). In words: Cell-based kinase selectivity assay. Particulars: follow-up of kinome panel hit.
Series [17] has as its system Eμ-CRLF2/Eμ-Jak2 R683G/Ts1Rhr/Pax5+/− (line 2539p) B-ALL. Description: Transplanted transgenic murine B-ALL model. The note with it: 14 days of treatment from day 15 after transplant.
For series [18], the system named is Ba/F3-CRLF2/JAK2 R683G cells. In words: Immunoblotting of Ba/F3-CRLF2/JAK2 R683G lysates. It counts as cell-based. Particulars: 2 hr exposure.
Series [19] concerns MHH-CALL4 cells. Description: Synergy screen with B-ALL chemotherapies. The series is classed as cell-based, human. Particulars: isobologram, combination index.

Sequence of activated (phosphorylated) JAK2 kinase (O60674 808-1132): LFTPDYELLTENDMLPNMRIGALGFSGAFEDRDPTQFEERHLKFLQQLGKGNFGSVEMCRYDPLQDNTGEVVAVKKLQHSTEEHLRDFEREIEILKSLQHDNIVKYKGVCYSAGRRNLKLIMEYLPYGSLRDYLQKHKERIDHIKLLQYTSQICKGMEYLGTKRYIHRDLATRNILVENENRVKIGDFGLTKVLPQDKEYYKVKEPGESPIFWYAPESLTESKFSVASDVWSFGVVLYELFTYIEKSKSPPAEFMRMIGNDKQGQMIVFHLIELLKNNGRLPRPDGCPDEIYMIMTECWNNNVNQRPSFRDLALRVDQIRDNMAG
T1 sequence (P07949 29-1114, species assumed): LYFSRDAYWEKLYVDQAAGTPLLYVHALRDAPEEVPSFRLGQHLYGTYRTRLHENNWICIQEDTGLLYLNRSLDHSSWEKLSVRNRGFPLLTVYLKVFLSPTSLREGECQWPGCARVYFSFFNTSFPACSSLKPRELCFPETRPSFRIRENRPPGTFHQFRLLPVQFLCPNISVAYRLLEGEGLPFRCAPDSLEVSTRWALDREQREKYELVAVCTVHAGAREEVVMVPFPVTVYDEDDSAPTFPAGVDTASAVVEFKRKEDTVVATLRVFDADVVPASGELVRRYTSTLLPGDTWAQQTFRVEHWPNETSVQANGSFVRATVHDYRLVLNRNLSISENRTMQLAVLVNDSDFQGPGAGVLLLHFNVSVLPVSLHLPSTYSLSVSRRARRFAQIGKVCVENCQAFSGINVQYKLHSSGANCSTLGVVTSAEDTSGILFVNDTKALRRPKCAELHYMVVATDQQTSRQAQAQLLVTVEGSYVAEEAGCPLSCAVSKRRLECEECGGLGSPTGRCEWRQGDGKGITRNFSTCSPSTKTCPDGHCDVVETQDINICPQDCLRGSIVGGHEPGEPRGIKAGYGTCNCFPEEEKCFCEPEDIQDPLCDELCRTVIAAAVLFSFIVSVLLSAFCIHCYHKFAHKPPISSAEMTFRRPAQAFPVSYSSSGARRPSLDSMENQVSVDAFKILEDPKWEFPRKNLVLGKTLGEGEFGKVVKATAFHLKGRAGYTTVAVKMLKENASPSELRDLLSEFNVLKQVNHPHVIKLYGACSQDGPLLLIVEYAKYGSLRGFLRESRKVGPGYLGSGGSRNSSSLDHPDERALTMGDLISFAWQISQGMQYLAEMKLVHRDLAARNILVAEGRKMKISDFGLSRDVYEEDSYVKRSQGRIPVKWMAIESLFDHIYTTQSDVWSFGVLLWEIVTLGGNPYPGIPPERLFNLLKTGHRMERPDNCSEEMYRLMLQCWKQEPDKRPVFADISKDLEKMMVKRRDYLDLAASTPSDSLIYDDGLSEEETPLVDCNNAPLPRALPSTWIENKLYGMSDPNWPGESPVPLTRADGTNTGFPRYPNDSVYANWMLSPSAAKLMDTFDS
Sequence of FLT3 (P36888 27-993, species assumed): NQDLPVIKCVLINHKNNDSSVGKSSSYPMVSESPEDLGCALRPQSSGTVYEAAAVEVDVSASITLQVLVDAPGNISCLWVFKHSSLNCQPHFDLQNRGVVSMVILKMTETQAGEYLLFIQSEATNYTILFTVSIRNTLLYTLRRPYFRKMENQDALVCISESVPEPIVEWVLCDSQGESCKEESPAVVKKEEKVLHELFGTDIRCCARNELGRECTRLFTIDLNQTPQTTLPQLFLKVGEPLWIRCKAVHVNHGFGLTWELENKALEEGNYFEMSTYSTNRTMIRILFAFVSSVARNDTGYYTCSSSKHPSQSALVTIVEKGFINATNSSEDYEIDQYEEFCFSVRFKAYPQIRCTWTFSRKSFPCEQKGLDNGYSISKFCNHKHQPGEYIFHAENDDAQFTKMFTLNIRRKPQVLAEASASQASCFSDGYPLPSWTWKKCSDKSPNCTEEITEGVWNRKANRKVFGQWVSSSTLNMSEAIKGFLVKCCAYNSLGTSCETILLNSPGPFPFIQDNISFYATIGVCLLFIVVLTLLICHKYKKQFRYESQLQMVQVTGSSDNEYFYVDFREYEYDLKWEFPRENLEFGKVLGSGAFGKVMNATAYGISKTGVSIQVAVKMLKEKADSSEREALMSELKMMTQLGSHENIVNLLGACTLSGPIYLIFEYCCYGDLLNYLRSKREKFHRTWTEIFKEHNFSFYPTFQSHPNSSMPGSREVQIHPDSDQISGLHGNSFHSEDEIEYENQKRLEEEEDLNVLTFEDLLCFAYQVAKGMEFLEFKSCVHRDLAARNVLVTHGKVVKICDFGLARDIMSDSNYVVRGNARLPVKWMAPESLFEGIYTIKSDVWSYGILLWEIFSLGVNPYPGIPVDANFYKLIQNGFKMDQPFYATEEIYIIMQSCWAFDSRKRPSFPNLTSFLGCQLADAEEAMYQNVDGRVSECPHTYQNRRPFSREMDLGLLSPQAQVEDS
Sequence of ABL (P00519 whole entry, species assumed): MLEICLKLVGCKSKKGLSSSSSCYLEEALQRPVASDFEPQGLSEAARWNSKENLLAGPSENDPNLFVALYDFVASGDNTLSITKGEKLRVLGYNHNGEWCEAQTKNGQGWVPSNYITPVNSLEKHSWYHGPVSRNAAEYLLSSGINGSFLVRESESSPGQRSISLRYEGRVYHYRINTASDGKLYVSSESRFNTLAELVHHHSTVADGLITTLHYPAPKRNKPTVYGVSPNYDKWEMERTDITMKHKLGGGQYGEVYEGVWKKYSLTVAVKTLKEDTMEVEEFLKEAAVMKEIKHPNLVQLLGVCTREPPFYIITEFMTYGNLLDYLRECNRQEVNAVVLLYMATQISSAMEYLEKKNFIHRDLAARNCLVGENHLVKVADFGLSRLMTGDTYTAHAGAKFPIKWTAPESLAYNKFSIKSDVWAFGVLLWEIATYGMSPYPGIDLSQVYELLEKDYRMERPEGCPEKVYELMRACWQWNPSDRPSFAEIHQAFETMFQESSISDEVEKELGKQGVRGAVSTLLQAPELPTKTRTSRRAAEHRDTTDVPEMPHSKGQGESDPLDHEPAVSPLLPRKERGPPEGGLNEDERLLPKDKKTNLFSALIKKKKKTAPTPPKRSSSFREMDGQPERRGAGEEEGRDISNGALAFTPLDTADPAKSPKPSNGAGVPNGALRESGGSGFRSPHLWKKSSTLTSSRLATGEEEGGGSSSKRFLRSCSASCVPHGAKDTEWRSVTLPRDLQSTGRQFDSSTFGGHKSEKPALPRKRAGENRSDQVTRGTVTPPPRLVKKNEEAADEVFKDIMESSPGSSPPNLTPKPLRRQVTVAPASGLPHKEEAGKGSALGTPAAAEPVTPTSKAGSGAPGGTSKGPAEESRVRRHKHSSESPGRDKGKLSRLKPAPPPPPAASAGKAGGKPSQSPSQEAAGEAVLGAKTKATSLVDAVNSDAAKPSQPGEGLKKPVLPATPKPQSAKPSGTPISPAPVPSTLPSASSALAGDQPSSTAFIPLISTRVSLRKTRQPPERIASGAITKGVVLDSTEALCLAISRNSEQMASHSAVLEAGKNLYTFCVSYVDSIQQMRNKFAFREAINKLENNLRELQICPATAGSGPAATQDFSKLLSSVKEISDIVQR
Sequence of KIT (P10721 26-976, species assumed): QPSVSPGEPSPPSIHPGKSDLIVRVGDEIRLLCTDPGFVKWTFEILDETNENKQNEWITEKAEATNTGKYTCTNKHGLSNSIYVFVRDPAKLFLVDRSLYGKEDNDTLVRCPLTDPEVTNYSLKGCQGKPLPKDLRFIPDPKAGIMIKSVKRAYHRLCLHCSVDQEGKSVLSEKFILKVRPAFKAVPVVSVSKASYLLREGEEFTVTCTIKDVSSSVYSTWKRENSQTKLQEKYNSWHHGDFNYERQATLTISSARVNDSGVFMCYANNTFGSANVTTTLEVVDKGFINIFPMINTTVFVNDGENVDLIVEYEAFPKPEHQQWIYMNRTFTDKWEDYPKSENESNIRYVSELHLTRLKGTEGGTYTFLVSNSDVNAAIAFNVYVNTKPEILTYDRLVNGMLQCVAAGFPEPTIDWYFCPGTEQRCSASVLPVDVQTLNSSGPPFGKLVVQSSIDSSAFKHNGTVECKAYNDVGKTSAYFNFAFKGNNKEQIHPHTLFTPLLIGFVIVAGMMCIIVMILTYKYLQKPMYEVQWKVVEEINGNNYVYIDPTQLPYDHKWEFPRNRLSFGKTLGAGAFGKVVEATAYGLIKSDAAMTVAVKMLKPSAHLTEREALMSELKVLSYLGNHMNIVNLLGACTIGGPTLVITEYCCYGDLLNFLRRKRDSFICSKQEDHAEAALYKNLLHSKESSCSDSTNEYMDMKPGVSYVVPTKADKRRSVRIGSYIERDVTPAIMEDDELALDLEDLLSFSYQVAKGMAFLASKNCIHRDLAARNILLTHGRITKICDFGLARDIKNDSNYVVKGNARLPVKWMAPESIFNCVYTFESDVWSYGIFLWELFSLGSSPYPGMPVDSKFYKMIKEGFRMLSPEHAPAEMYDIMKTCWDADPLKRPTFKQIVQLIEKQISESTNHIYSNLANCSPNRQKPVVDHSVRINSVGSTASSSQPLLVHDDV
Sequence of BCR-ABL (P00519 242-493 limits assumed, one chain of several): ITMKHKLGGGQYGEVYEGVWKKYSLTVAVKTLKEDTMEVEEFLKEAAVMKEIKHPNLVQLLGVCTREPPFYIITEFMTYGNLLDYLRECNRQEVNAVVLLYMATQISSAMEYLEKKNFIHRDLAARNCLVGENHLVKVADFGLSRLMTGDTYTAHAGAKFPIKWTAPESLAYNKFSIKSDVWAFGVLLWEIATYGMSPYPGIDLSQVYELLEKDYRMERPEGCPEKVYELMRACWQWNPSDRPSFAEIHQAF
Sequence of JAK2 (O60674 840-1132 limits assumed): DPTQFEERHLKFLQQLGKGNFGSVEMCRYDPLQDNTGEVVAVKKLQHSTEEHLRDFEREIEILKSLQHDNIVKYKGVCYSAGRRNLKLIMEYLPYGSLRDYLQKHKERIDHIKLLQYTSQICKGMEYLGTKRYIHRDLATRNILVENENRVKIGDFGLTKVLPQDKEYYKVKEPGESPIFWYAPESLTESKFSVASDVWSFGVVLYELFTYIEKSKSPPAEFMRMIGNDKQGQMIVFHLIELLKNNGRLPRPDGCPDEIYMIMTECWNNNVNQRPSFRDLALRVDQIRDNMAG

As to `CC(=O)Nc1cc(Oc2ccc3c(nc(Nc4ccc(F)cc4F)n3C)c2C)ccn1` [CHZ868], the “concentration within the spleen” value in series [1] (2 hr after dosing) is given as 4.3 nmol/g. Besides, in series [1] (6 hr after dosing), the “drug level within the spleen” value is on record as less than 1 nmol/g. In addition, in the series with BALB/c mice, the WBC count result is given as “did not affect”, the “increase in reticulocyte count induced by rhEpo” value is given as “blocked” and the “splenomegaly induced by rhEpo” value is “completely blocked”. Further, in [2], the “number of kinases with activity” value worked out at 26 kinases. The “activity against PDGFR family kinases in the cellular setting” value in the series with PDGFR family kinases was “low nanomolar activity”. At BCR-ABL, the “BCR-ABL inhibition compared with BBT594” value is listed as “significantly reduced”. For the same molecule, the metabolic stability result in the series “Metabolic stability” is “good”. Further, the “cytochrome C release upon exposure to BIM compared to vehicle” value in the series on CRLF2-rearranged PDXs [3] was “significantly increased”. Also, in series [4] (30 mg/kg/day, 6 days), the pSTAT5 in spleens entry is “almost complete loss”, the “peripheral WBC counts compared to control animals” value was “lower” and the “splenomegaly compared to control animals” value is “reduced splenomegaly”. Moreover, in [4] (25 days of treatment), the “overall survival compared to control animals” value is reported as “markedly improved”. Further, the “resistant clones recovered after selection” value in series [5] was “none”. Further, the “induction of pSTAT5 by rhEpo” value in series [6] (oral 30 mg/kg/day, administered 2 hr prior to sampling) is given as “completely blocked”. In addition, the “time for which rhEpo induction of pSTAT5 remained attenuated” value in series [6] (spleen and bone marrow) is 48–72 hr. In addition, in the series on wild-type mice, the “effects on body weight, peripheral blood cell counts, bone marrow cellularity, fractions of hematopoietic progenitors” value is “no significant effects” and the spleen weights entry is reported as “trends towards reduced”. The serum erythropoietin levels entry in the series on wild-type mice (trend) is given as “elevated”. For the same molecule, in the series on MHH-CALL4 cells [7], the “JAK2 activation loop phosphorylation” value is listed as “suppressed JAK2 phosphorylation”. The “IC50 fold-shift for cells expressing L884P compared to cells without L884P” value (from here on “IC50 fold-shift … to cells without L884P”) in series [8] turned out to be 4 fold. The molecule further returned a half-inhibitory concentration (IC50) in the series with MHH-CALL4 cells [9] of approximately 100 nM. Also, the “IC50 fold-shift … to cells without L884P” value in [10] is 2–3 fold. Further, the “suppressive effects on pJAK2, pSTAT5, and c-Myc in presence of L884P” value in series [11] was “abrogated”. Besides, the “activity against RET in the cellular setting” value at RET [12] was “not corroborated”. Further, the “RET inhibition compared with BBT594” value on RET [13] is “significantly reduced”. Besides, the “blood t1/2” value in the series “Pharmacokinetics” (mice) is 1 h. In addition, the blood clearance result in “Pharmacokinetics” (mouse, in vivo) is “moderate”. The oral bioavailability entry in “Pharmacokinetics” (mouse, in vivo, po) is on record as “good”. In the series on CRLF2-rearranged PDXs [14], the apoptosis ex vivo entry was “induced apoptosis” and the proliferation ex vivo entry is listed as “consistently blocked proliferation”. The “activity against VEGFR family kinases in the cellular setting” value in the series on VEGFR family kinases is given as “low nanomolar activity”. In addition, at KIT, the “activity against KIT in the cellular setting” value is reported as “low nanomolar activity”. The “activity against BRAF in the cellular setting” value on BRAF is “not corroborated”. In addition, the passive permeability result in the series “Passive permeability” was “high”. Further, in series [15], the “activity in Ba/F3 TEL-JAK2 cells” value is “highly active”. In addition, the “FLT3 inhibition compared with BBT594” value at FLT3 is on record as “significantly reduced”. On JAK2, the “potency in JAK2-driven cellular assays” value is recorded as “excellent potency”. The “inhibitory activity in enzymatic assays” value in [16] (activated (phosphorylated) JAK2 kinase) is listed as “modest inhibitory activity”. The “JAK2 inhibitory activity, fold improved over BBT594” value in [16] (enzymatic and cell-based assays, Figure 1B) is 3–9 fold. In addition, the “activity against ABL in the cellular setting” value at ABL is recorded as “not corroborated”. The “overall survival compared to vehicle” value in series [17] was “increased overall survival”. For the same molecule, the “pJAK2 and pSTAT5 by immunoblotting” value in [18] is listed as “completely abrogated”.

Regarding `C[C@@H]1C[C@H]2[C@@H]3CCC4=CC(=O)C=C[C@]4(C)[C@@]3(F)[C@@H](O)C[C@]2(C)[C@@]1(O)C(=O)CO` [dexamethasone, reference compound], the “synergy with CHZ868” value in the series on MHH-CALL4 cells [19] is given as “most notable synergy”. In addition, the “overall survival compared to vehicle” value in series [17] is given as “increased overall survival”.

Regarding `Fc1cc(-c2cccc3ncc(-c4cnn(C5CCNCC5)c4)nc23)cc(F)c1CN1CCOCC1` [BSK805], the “JAK2 activation loop phosphorylation” value in the series on MHH-CALL4 cells [7] is reported as “hyperphosphorylation”. Moreover, the “IC50 fold-shift … to cells without L884P” value in [8] is recorded as “minimal effects”. The molecule further displayed an IC50 with MHH-CALL4 cells [9] of more than 2000 nM.

As for `C[C@@H]1CN(c2ccc(Nc3ncc4ccn(-c5cc(F)c(CN6CCOCC6)c(F)c5)c4n3)cc2)C[C@H](C)N1` [BVB808], the “JAK2 activation loop phosphorylation” value in the series on MHH-CALL4 cells [7] is on record as “hyperphosphorylation”. Further, the “IC50 fold-shift … to cells without L884P” value in [8] is reported as “minimal effects”. In the series on MHH-CALL4 cells [9], this molecule came in with a 50% inhibitory concentration (IC50) of more than 2000 nM.

Regarding `CC(=O)Nc1cc(Oc2ccc3c(c2)CCN3C(=O)Nc2ccc(CN3CCN(C)CC3)c(C(F)(F)F)c2)ncn1` [BBT594], in series [5], the “resistant clones recovered after selection” value is “Over 30 clones”. Moreover, the “JAK2 activation loop phosphorylation” value in the series with MHH-CALL4 cells [7] is given as “suppressed JAK2 phosphorylation”. The “IC50 fold-shift … to cells without L884P” value in series [8] was “approximately 11 fold”. In the series on MHH-CALL4 cells [9], this molecule came in with an IC50 of approximately 100 nM. Also, the “IC50 fold-shift … to cells without L884P” value in series [10] is listed as 2–3 fold. The “suppressive effects on pJAK2, pSTAT5, and c-Myc in presence of L884P” value in [11] is listed as “abrogated”. For the same molecule, in the series with CRLF2-rearranged PDXs [14], the apoptosis ex vivo result is recorded as “induced apoptosis” and the proliferation ex vivo result is given as “consistently blocked proliferation”.

Take `N#CC[C@H](C1CCCC1)n1cc(-c2ncnc3[nH]ccc23)cn1` [ruxolitinib]: the “JAK2 activation loop phosphorylation” value with MHH-CALL4 cells [7] is given as “hyperphosphorylation”. In the series with CRLF2-rearranged PDXs [14], the apoptosis ex vivo result is “little or no effect” and the proliferation ex vivo entry is recorded as “little or no effect”.
